These results are taken from patent publication US6984649B1, “Pyridine derivatives” (Bayer Aktiengesellschaft, priority 2000, dated 2006).

Structures can show the parent of a compound that is named as a salt.

The term IC50 denotes the concentration needed to halve the response being measured.

Assay [1] relates to A549 human lung epithelium cell line. Description: RANTES production in response to TNF-α from A549 cells. The assay is classed as cell-based. The following applies: Homo sapiens, A549, A549 cells, 100 ng/ml TNF-α, read-out: Cellular activity grade (A549) (Cellular IC50). Put shortly: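 Cells (4×10^4/well) in D-MEM/10% FCS preincubated 1 h at 37 °C with compound in 1% DMSO, then stimulated with 100 ng/ml TNF-α for 24 h. Supernatant RANTES quantified by Eu-labelled sandwich immunoassay (time-resolved fluorescence, ex 340/em 615 nm) against recombinant human RANTES standard.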

The subject of a further assay is Jurkat T cells. Description: IL-2 production in Jurkat T cells in response to anti-CD3/anti-CD28 antibody stimulation. The assay is classed as cell-based. Conditions: Homo sapiens, read-out: Cellular activity grade (Jurkat) (Cellular IC50).

Take `Cc1c(C2CCCNC2)cc(-c2ccccc2O)nc1N` (centres unmarked) [Example 14-1, 2-[6-amino-5-methyl-4-(3-piperidinyl)-2-pyridinyl]phenol hydrochloride]: the figures for the half-inhibitory concentration (IC50) (in assay [1]; in the assay with Jurkat T cells) were < 1 µM and 1 to 10 µM, respectively. In the case of `N#Cc1c(C2CCCNC2)cc(-c2ccccc2O)nc1NCc1ccccc1` (centres unmarked) [Example 4-1, 2-(benzylamino)-6-(2-hydroxyphenyl)-4-(3-piperidinyl)nicotinonitrile hydrochloride], the IC50 (in assay [1]; with Jurkat T cells) was 1 to 10 µM in each case. Take `N#Cc1c(C2CCCNC2)cc(-c2ccccc2O)nc1N` (centres unmarked) [Example 1-1, 2-amino-6-(2-hydroxyphenyl)-4-(3-piperidinyl)-nicotinonitrile hydrochloride]: the IC50 (in assay [1]; with Jurkat T cells) was < 1 µM in each case. As for `N#Cc1c(N)nc(-c2ccccc2O)c(F)c1C1CCCNC1` (centres unmarked) [Example 1-4, 2-amino-5-fluoro-6-(2-hydroxyphenyl)-4-(3-piperidinyl)-nicotinonitrile trifluoroacetate], the IC50 (in assay [1]; with Jurkat T cells) was 1 to 10 µM in each case. Consider `N#Cc1c(C2CCNC2)cc(-c2ccccc2O)nc1N` (centres unmarked) [Example 1-2, 2-amino-6-(2-hydroxyphenyl)-4-(3-pirrolidinyl)nicotinonitrile trifluoroacetate], for which the half-maximal inhibitory concentration (IC50) in assay [1] was < 1 µM; in the assay with Jurkat T cells, 1 to 10 µM. For `O=C1Nc2nc(-c3ccccc3O)cc(C3CCCNC3)c2CO1` (centres unmarked) [Example 18-2, 7-(2-hydroxyphenyl)-5-(3-piperidinyl)-1,4-dihydro-2H-pyrido[2,3-d][1,3]oxazin-2-one hydrochloride], in that order: < 1 µM and 1 to 10 µM. For the compound `Nc1nc(-c2ccccc2O)cc(C2CCCNC2)c1CO` (centres unmarked) [Example 11-1, 2-[6-amino-5-(hydroxymethyl)-4-(3-piperidinyl)-2-pyridinyl]phenol hydrochloride], the 50% inhibitory concentration (IC50) in assay [1] was < 1 µM. Same read-out and setting: as for `O=C(Nc1cc2c(C3CCCNC3)cc(-c3c(O)cccc3OCC3CC3)nc2[nH]c1=O)c1ccccc1` (centres unmarked) [Example 29-2, N-[7-[2-(cyclopropylmethoxy)-6-hydroxyphenyl]-2-oxo-5-(3-piperidinyl)-1,2-dihydro-1,8-naphthyridin-3-yl]benzamide hydrochloride], the figure is 1 to 10 µM. The same measure, in the same setting: the result for `CC1(c2cc(-c3ccccc3O)nc(N)c2C#N)CCCNC1` (centres unmarked) [Example 1-3, 2-amino-6-(2-hydroxyphenyl)-4-(3-methylpiperidin-3-yl)-nicotinonitrile hydrochloride] reads 1 to 10 µM; that for `Nc1nc(-c2ccccc2O)cc(C2=CCCNC2)c1CO` [Example 11-4, 2-[6′-amino-5′-(hydroxymethyl)-1,2,5,6-tetrahydro-3,4′-bipyridin-2′-yl]phenol hydrochloride], < 1 µM; that for `Nc1nc(-c2ccccc2O)cc(C2CCCNC2)c1C(=O)O` (centres unmarked) [Example 9-2, 2-amino-6-(2-hydroxyphenyl)-4-(3-piperidinyl)nicotinic acid hydrochloride], 1 to 10 µM. Turning to `O=c1[nH]c2nc(-c3ccccc3O)cc(C3CCCNC3)c2c(=O)n1-c1ccccc1` (centres unmarked) [Example 7-3, 7-(2-hydroxyphenyl)-3-phenyl-5-(3-piperidinyl)pyrido[2,3-d]pyrimidine-2,4(1H,3H)-dione hydrochloride], the half-maximal inhibitory concentration (IC50) in assay [1] is > 10 µM.

Regarding `CC(=O)Nc1nc(-c2c(O)cccc2OCC2CC2)cc(C2CCNCC2)c1C#N` [Example 6-2, N-[3-cyano-6-[2-(cyclopropylmethoxy)-6-hydroxyphenyl]-4-(4-piperidinyl)-2-pyridinyl]acetamide hydrochloride], the IC50 in assay [1] is < 1 µM.

As to `O=C1NCc2c(C3CCNCC3)cc(-c3c(O)cccc3OCC3CC3)nc2N1` [Example 22-3, 7-[2-(cyclopropylmethoxy)-6-hydroxyphenyl]-5-(4-piperidinyl)-3,4-dihydro-1H-pyrido[2,3-d]pyrimidin-2-one hydrochloride], the half-maximal inhibitory concentration (IC50) in assay [1] was < 1 µM. Regarding `Cn1c(=O)[nH]c2nc(-c3ccccc3O)cc(C3CCCNC3)c2c1=O` (centres unmarked) [Example 10-1, 7-(2-hydroxy-phenyl)-3-methyl-5-piperidin-3-yl-1H-pyrido[2,3-d]pyrimidine-2,4-dione hydrochloride], in assay [1], the half-maximal inhibitory concentration (IC50) fell in the range of 1 to 10 µM. On the same count and under the same terms, as for `NCCNc1cc(-c2c(O)cccc2OCC2CC2)nc2c1COC(=O)N2` [Example 35-1, 5-[(2-aminoethyl)amino]-7-[2-(cyclopropylmethoxy)-6-hydroxyphenyl]-1,4-dihydro-2H-pyrido[2,3-d][1,3]oxazin-2-one hydrochloride], the figure is < 1 µM; as for `O=S1(=O)NCc2c(C3CCCNC3)cc(-c3ccccc3O)nc2N1` (centres unmarked) [Example 22-5, 2-[2,2-dioxido-5-(3-piperidinyl)-3,4-dihydro-1H-pyrido[2,3-c][1,2,6]thiadiazin-7-yl]phenol hydrochloride], 1 to 10 µM. The same measure, in the same setting: the result for `CC(=O)c1c(C2CCCNC2)cc(-c2ccccc2O)nc1N` (centres unmarked) [Example 15-3, 1-[2-amino-6-(2-hydroxyphenyl)4-(3-piperidinyl)-3-pyridinyl]ethanone hydrochloride] reads < 1 µM. Turning to `Nc1nc(-c2ccccc2O)cc(C2CCCNC2)c1C(O)c1ccccc1` (centres unmarked) [Example 15-2, 2-[6-amino-5-[hydroxy(phenyl)methyl]-4-(3-piperidinyl)-2-pyridinyl]phenol hydrochloride], the half-inhibitory concentration (IC50) in assay [1] fell in the range of 1 to 10 µM. Still for that read-out and setting: the result for `O=c1[nH]c(=O)c2c(C3CCCNC3)cc(-c3ccccc3O)nc2[nH]1` (centres unmarked) [Example 7-2, 7-(2-hydroxyphenyl)-5-(3-piperidinyl)pyrido[2,3-d]pyrimidine-2,4(1H,3H)-dione hydrochloride] reads > 10 µM; that for `CN1CCCC(c2cc(-c3c(O)cccc3OCC3CC3)nc(N)c2C#N)C1` (centres unmarked) [Example 3-1, 2-amino-6-[2-(cyclopropylmethoxy)-6-hydroxyphenyl]-4-(1-methyl-3-piperidinyl)nicotinonitrile], < 1 µM; that for `N#Cc1c(C2CCCC(C(=O)O)C2)cc(-c2ccccc2O)nc1N` (centres unmarked) [Example 1-8, 3-[2-amino-3-cyano-6-(2-hydroxyphenyl)-4-pyridinyl]cyclohexanecarboxylic acid], > 10 µM. Still for that read-out and setting: as for `Nc1nc(-c2c(O)cccc2OCC2CC2)cc(C2CCCNC2)c1C(=O)O` (centres unmarked) [Example 9-3, 2-amino-6-[2-(cyclopropylmethoxy)-6-hydroxyphenyl]-4-(3-piperidinyl)nicotinic acid hydrochloride], the figure is > 10 µM. Still for that read-out and setting: as for `N#Cc1c(C2CCCNC2)cc(-c2ccccc2O)nc1Nc1ccccc1` (centres unmarked) [Example 4-4, hydrochloride], the figure is 1 to 10 µM; as for `CNC1CCCC(c2cc(-c3ccccc3O)nc(N)c2C#N)C1` (centres unmarked) [Example 1-5, 2-amino-6-(2-hydroxyphenyl)-4-[3-methylamino]cyclohexyl]nicotinonitrile hydrochloride], 1 to 10 µM. On to `N#Cc1c(C2CCCNC2)cc(-c2c(N)cccc2O)nc1N` (centres unmarked) [Example 1-10, 2-amino-6-(2-amino-6-hydroxyphenyl)-4-(3-piperidinyl)nicotinonitrile hydrochloride], for which the half-maximal inhibitory concentration (IC50) in assay [1] is > 10 µM.
